Test results from patent US6448228B1, “Dipeptide compounds having a high fungicidal activity and their agronomic use” (Isagro Ricerca S.r.l., priority 1998, dated 2002).
Like-named read-outs stand apart in the source and are kept apart here.

Tested on: Plasmopara viticola
Assay: Fungicidal effectiveness against Peronospora (Plasmopara viticola) in preventive leaf application on vines
Assay type: in vivo
Conditions: 168 h, read-out: Effectiveness expressed as leaf diffusion control % of the disease with respect to a non-treated reference
Procedure: Determination of the Fungicidal Effectiveness Against Peronospora (Plasmapara viticola) of Compounds Having Formula (I) and (II) in Preventive Leaf Application
Cultivar Dolcetto vine leaves, grown in vases in a conditioned environment (20±1° C.), 70% relative humidity), are treated by spraying both sides of the leaves with compounds 1-7 dispersed in a hydroacetone solution at 20% by volume of acetone.
After remaining 24 hours in a conditioned environment, the plants are sprayed on both sides of the leaf with an aqueous suspension of conidia of Plasmopara viticola (200,000 conidia per cm^3).
The plants are kept in a humidity saturated environment, at 21° C., for the incubation period of the fungus and, at the end of this period (7 days), the fungicidal activity is evaluated according to an evaluation percentage scale from 100 (healthy plant) to 0 (completely infected plant).

[1] = Dose 0.45 g/hl, preventive leaf application on Dolcetto vines, inoculation 24 hours after treatment, evaluation after 7 days, scale 100 (healthy plant) to 0 (completely infected plant)
[2] = Dose 1.8 g/hl, preventive leaf application on Dolcetto vines, inoculation 24 hours after treatment, evaluation after 7 days, scale 100 (healthy plant) to 0 (completely infected plant)
[3] = Dose 7.5 g/hl, preventive leaf application on Dolcetto vines, inoculation 24 hours after treatment, evaluation after 7 days, scale 100 (healthy plant) to 0 (completely infected plant)
[4] = Dose 30 g/hl, preventive leaf application on Dolcetto vines, inoculation 24 hours after treatment, evaluation after 7 days, scale 100 (healthy plant) to 0 (completely infected plant)

SMILES | pest or weed control at 0.45 g/hl [1] | pest or weed control at 1.8 g/hl [2] | pest or weed control at 7.5 g/hl [3] | pest or weed control at 30 g/hl [4] | pest or weed control at 0.45 g/hl | pest or weed control at 1.8 g/hl | pest or weed control at 7.5 g/hl | pest or weed control at 30 g/hl
COC(=O)C[C@@H](NC(=O)[C@@H](NC(=O)OC(C)C)C(C)C)c1ccc(Cl)cc1 (racemic) [Compound 2, methyl (±)R-[3-(N-isopropoxycarbonyl-S-valinyl)amino]-3-(4-chlorophenyl)propanoate] | 100% | 100% | 100% | 100% | – | – | – | –
CC(C)OC(=O)CC(NC(=O)[C@@H](NC(=O)OC(C)C)C(C)C)c1ccccc1 (stereo partly shown) [Reference 5, reference compound] | 0% | 15% | 75% | 96% | – | – | – | –
COC(=O)C[C@H](NC(=O)[C@@H](NC(=O)OC(C)C)C(C)C)c1ccc(Cl)cc1 [Compound 3, methyl (−)S-[3-(N-isopropoxycarbonyl-S-valinyl)amino]-3-(4-chlorophenyl)propanoate] | 65% | 85% | 100% | 100% | – | – | – | –
COC(=O)CC(NC(=O)[C@@H](NC(=O)OC(C)C)C(C)C)c1ccccc1 (stereo partly shown) [Reference 3, reference compound] | 10% | 55% | 91% | 100% | – | – | – | –
COC(=O)CC(NC(=O)[C@@H](NC(=O)OC(C)C)C(C)C)c1nc2cc(Cl)ccc2s1 (mixture of isomers) [Compound 9, methyl (±)RS-[3-(N-isopropoxycarbonyl-S-valinyl)amino]-3-(5-chlorobenzothiazol-2-yl)propanoate] | 90% | 100% | 100% | 100% | – | – | – | –
COC(=O)CC(NC(=O)[C@@H](NC(=O)OC(C)(C)C)C(C)C)c1ccccc1 (stereo partly shown) [Reference 1, reference compound] | 0% | 20% | 90% | 100% | – | – | – | –
COC(=O)CC(NC(=O)[C@@H](NC(=O)OC(C)C)C(C)C)c1nc2ccccc2s1 (mixture of isomers) [Compound 8, methyl (±)RS-[3-(N-isopropoxycarbonyl-S-valinyl)amino]-3-(benzothiazol-2-yl)propanoate] | 70% | 92% | 100% | 100% | – | – | – | –
COC(=O)C(C)(C)C(NC(=O)[C@@H](NC(=O)OC(C)C)C(C)C)c1ccccc1 (stereo partly shown) [Reference 4, reference compound] | 15% | 55% | 75% | 90% | – | – | – | –
COC(=O)CC(NC(=O)[C@@H](NC(=O)OC(C)C)C(C)C)c1ccc(Cl)cc1 (mixture of isomers) [Compound 1, methyl (±)RS-[3-(N-isopropoxy-carbonyl-S-valinyl)amino]-3-(4-chlorophenyl)propanoate] | 80% | 100% | 100% | 100% | – | – | – | –
CCc1ccc(C(CC(=O)OC)NC(=O)[C@@H](NC(=O)Oc2ccccc2)C(C)C)cc1 (stereo partly shown) [Compound 5, methyl RS-[3-(N-phenoxycarbonyl-S-valinyl)amino]-3-(4-ethylphenyl)propanoate] | – | – | – | – | 70% | 90% | 100% | 100%
COC(=O)CC(NC(=O)[C@@H](NC(=O)OC(C)C)C(C)C)c1ccc(C)cc1 (stereo partly shown) [Compound 4, methyl RS-[3-(N-isopropoxycarbonyl-S-valinyl)amino]-3-(4-methylphenyl)propanoate] | 75% | 100% | 100% | 100% | – | – | – | –
COC(=O)CC(NC(=O)[C@@H](NC(=O)OC(C)(C)C)C(C)C)c1ccc(Cl)cc1 (stereo partly shown) [Reference 2, reference compound] | 30% | 65% | 88% | 100% | – | – | – | –
COC(=O)CC(NC(=O)[C@@H](NC(=O)OC(C)C)C(C)C)c1ccc(C#N)cc1 (stereo partly shown) [Compound 7, methyl RS-[3-(N-isopropoxycarbonyl-S-valinyl)amino]-3-(4-cyanophenyl)propanoate] | 67% | 90% | – | 100% | – | – | – | –
COC(=O)CC(NC(=O)[C@@H](NC(=O)OC(C)C)C(C)C)c1ccc(OC)cc1 (stereo partly shown) [Compound 6, methyl RS-[3-(N-isopropoxycarbonyl-S-valinyl)amino]-3-(4-methoxyphenyl)propanoate] | 65% | 92% | 100% | 100% | – | – | – | –
